Measured values taken from ChEMBL document CHEMBL5325463, “Novel spiroindoline quinazolinedione derivatives as anticancer agents and potential FLT3 kinase inhibitors” (Bioorg Med Chem, 2023).

How the values were obtained:
K562 [1] = test: cells; conditions: Homo sapiens, K562, 72 h
Description: Antiproliferative activity against human K562 cells incubated for 3 days by MTT assay

EBC-1 = test: cells; conditions: Homo sapiens, EBC-1, 72 h
Description: Antiproliferative activity against human EBC-1 cells incubated for 3 days by MTT assay

HT-29 = test: cells; conditions: Homo sapiens, HT-29, 72 h
Description: Antiproliferative activity against human HT-29 cells incubated for 3 days by MTT assay

A549 = test: cells; conditions: Homo sapiens, A549, 72 h
Description: Antiproliferative activity against human A549 cells incubated for 3 days by MTT assay

K562 [2] = test: Induction of cell cycle arrest in human K562 cells assessed as accumulation at S phase at 10 uM incubated for 48 hrs by Rnase/PI staining based flow cytometry (reference value: 17.95 +/- 3.42); format: functional
[3] = tested on: T1, Receptor-type tyrosine-protein kinase FLT3 (Homo sapiens), P36888 [D835Y]; test: Inhibition of human FLT3 D835Y mutant at 10 uM by radiometric assay relative to control
T1 sequence (whole entry): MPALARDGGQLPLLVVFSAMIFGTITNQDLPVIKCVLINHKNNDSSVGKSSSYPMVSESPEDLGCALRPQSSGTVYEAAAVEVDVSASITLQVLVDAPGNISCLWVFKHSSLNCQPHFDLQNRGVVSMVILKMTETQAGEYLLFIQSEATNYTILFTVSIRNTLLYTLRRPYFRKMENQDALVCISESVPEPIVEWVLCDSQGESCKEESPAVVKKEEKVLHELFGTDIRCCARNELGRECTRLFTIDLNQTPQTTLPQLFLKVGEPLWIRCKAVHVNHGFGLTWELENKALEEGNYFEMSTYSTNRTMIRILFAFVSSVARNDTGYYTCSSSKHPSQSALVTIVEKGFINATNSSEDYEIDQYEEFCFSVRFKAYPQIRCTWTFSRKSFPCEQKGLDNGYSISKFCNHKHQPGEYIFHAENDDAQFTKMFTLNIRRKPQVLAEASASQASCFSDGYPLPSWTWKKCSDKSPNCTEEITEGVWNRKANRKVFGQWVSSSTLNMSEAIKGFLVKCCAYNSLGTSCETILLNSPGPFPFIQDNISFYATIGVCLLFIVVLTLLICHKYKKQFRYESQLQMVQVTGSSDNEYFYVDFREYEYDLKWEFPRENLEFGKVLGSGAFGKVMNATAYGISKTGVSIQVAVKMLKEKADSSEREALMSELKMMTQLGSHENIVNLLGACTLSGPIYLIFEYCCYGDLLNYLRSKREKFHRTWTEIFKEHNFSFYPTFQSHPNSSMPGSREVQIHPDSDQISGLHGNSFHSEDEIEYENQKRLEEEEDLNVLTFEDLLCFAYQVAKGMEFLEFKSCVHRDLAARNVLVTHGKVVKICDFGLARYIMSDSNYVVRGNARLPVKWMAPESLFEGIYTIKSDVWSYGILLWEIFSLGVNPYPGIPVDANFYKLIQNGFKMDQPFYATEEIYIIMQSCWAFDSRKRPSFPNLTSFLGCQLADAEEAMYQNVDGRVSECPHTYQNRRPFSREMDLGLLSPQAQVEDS

[4] = tested on: T1, Receptor-type tyrosine-protein kinase FLT3 (Homo sapiens), P36888 [D835Y]; test: Inhibition of human FLT3 D835Y mutant at 25 uM by radiometric assay relative to control
K562 [5] = test: Induction of cell cycle arrest in human K562 cells assessed as accumulation at G0/G1 phase at 50 uM incubated for 48 hrs by Rnase/PI staining based flow cytometry (reference value: 57.34 +/- 3.14); format: functional
[6] = target: Mitogen-activated protein kinase 3 (Homo sapiens) (UniProt P27361); test: Inhibition of MAPK3 (unknown origin) at 10 uM by radiometric assay relative to control
[7] = target: Receptor-type tyrosine-protein kinase FLT3 (Homo sapiens) (UniProt P36888); test: Inhibition of human FLT3 at 10 uM by radiometric assay relative to control
[8] = target: Platelet-derived growth factor receptor beta (Homo sapiens) (UniProt P09619); test: Inhibition of PDGFRB (unknown origin) at 10 uM by radiometric assay relative to control
K562 [9] = test: Induction of cell cycle arrest in human K562 cells assessed as accumulation at sub G1 phase at 50 uM incubated for 48 hrs by Rnase/PI staining based flow cytometry (reference value: 0.92 +/- 0.12); format: functional
[10] = target: Macrophage-stimulating protein receptor (Homo sapiens) (UniProt Q04912); test: Inhibition of MST1R (unknown origin) at 10 uM by radiometric assay relative to control
[11] = target: Hepatocyte growth factor receptor (Homo sapiens) (UniProt P08581); test: Inhibition of MET (unknown origin) at 10 uM by radiometric assay relative to control
[12] = target: Platelet-derived growth factor receptor alpha (Homo sapiens) (UniProt P16234); test: Inhibition of PDGFRA (unknown origin) at 10 uM by radiometric assay relative to control
K562 [13] = test: Induction of cell cycle arrest in human K562 cells assessed as accumulation at G0/G1 phase at 10 uM incubated for 48 hrs by Rnase/PI staining based flow cytometry (reference value: 57.34 +/- 3.14); format: functional
K562 [14] = test: Induction of cell cycle arrest in human K562 cells assessed as accumulation at G2/M phase at 10 uM incubated for 48 hrs by Rnase/PI staining based flow cytometry (reference value: 23.78 +/- 6.09); format: functional
[15] = target: Receptor-type tyrosine-protein kinase FLT3 (Homo sapiens) (UniProt P36888); test: Inhibition of human FLT3 at 25 uM by radiometric assay relative to control
K562 [16] = test: Induction of cell cycle arrest in human K562 cells assessed as accumulation at G2/M phase at 50 uM incubated for 48 hrs by Rnase/PI staining based flow cytometry (reference value: 23.78 +/- 6.09); format: functional
K562 [17] = test: Induction of cell cycle arrest in human K562 cells assessed as accumulation at S phase at 50 uM incubated for 48 hrs by Rnase/PI staining based flow cytometry (reference value: 17.95 +/- 3.42); format: functional
[18] = target: Mast/stem cell growth factor receptor Kit (Homo sapiens) (UniProt P10721); test: Inhibition of KIT (unknown origin) at 10 uM by radiometric assay relative to control
[19] = target: Vascular endothelial growth factor receptor 2 (Homo sapiens) (UniProt P35968); test: Inhibition of KDR (unknown origin) at 10 uM by radiometric assay relative to control
K562 [20] = test: Induction of cell cycle arrest in human K562 cells assessed as accumulation at sub G1 phase at 10 uM incubated for 48 hrs by Rnase/PI staining based flow cytometry (reference value: 0.92 +/- 0.12); format: functional
[21] = target: Dual specificity mitogen-activated protein kinase kinase 1 (Homo sapiens) (UniProt Q02750); test: Inhibition of MAP2K1 (unknown origin) at 10 uM by radiometric assay relative to control
Dual specificity mitogen-activated protein kinase kinase 1 (Homo sapiens), sequence (Q02750 whole entry): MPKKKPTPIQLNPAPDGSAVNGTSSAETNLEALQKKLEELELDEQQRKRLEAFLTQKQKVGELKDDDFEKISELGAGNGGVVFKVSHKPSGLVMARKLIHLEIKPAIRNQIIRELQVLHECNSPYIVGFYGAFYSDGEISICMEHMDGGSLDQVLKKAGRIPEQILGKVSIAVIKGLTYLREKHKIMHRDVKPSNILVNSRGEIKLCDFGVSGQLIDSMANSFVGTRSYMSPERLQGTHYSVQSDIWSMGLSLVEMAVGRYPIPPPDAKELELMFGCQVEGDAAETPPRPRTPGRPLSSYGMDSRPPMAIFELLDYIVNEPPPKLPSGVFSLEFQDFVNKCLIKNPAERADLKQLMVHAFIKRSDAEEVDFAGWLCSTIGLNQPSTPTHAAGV

Platelet-derived growth factor receptor alpha (Homo sapiens), sequence (P16234 whole entry): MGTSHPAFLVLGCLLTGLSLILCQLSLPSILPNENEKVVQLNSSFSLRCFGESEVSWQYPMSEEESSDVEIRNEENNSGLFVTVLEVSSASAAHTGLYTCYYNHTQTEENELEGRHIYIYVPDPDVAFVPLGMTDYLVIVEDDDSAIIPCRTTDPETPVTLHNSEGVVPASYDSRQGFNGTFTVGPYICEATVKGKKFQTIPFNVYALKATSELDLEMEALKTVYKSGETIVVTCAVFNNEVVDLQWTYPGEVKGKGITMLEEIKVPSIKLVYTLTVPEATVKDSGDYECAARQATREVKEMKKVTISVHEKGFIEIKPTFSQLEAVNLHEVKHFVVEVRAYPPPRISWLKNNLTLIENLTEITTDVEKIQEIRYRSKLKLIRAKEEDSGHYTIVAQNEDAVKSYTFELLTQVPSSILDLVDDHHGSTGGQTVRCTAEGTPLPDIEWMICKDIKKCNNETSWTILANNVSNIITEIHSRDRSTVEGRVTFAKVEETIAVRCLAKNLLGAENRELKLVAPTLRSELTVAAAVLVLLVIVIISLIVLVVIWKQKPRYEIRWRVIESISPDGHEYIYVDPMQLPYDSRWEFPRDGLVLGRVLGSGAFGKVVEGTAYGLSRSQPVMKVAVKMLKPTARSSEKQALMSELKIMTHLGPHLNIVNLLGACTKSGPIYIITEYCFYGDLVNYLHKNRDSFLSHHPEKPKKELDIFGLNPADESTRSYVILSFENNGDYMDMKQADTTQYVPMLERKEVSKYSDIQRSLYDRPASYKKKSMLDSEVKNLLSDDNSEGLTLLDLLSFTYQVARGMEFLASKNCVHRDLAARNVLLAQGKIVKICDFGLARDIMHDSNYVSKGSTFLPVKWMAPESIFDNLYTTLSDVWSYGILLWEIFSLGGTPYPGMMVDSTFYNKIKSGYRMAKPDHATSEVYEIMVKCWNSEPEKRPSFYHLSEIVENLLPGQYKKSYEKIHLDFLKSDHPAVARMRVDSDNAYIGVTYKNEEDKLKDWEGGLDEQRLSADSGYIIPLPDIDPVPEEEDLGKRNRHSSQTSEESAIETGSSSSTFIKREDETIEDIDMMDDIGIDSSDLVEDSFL
Macrophage-stimulating protein receptor (Homo sapiens), sequence (Q04912 25-304 limits assumed): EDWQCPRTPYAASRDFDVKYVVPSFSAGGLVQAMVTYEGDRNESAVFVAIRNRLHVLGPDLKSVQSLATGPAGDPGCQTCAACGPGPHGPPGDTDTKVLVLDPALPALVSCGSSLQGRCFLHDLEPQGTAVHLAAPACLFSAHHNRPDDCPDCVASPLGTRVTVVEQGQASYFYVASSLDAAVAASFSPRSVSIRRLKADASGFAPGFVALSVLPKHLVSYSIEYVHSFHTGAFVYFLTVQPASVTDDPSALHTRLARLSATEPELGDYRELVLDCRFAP
Macrophage-stimulating protein receptor (Homo sapiens), sequence (Q04912 310-1400 limits assumed): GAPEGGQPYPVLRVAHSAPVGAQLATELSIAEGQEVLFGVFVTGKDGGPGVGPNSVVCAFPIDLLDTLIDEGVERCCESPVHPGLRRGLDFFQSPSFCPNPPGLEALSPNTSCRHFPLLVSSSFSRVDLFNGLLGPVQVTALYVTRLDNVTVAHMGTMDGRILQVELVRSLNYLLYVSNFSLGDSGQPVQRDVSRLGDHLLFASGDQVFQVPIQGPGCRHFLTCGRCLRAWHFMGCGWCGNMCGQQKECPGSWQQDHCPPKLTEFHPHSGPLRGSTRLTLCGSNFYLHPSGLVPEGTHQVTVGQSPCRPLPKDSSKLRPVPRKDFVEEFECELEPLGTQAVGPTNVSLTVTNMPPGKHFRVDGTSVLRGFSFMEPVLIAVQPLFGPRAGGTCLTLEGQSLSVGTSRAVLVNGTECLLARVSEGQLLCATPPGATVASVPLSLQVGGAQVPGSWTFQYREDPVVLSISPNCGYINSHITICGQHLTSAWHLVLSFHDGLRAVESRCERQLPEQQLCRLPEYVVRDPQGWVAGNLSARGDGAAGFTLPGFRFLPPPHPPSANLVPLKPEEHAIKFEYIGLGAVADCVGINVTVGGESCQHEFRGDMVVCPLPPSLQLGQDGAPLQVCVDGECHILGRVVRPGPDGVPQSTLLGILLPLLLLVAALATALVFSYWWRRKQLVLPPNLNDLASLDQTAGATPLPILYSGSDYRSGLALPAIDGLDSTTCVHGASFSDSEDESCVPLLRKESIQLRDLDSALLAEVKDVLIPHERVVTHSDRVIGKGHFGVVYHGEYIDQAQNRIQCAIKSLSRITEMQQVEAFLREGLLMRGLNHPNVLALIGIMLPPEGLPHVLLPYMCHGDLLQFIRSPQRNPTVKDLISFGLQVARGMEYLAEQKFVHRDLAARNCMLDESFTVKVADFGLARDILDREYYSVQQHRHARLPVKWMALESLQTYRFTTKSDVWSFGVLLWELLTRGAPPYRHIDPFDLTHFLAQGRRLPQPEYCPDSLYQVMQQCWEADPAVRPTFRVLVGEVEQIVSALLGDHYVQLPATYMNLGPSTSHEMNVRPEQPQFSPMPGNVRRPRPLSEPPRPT
Hepatocyte growth factor receptor (Homo sapiens), sequence (P08581 whole entry): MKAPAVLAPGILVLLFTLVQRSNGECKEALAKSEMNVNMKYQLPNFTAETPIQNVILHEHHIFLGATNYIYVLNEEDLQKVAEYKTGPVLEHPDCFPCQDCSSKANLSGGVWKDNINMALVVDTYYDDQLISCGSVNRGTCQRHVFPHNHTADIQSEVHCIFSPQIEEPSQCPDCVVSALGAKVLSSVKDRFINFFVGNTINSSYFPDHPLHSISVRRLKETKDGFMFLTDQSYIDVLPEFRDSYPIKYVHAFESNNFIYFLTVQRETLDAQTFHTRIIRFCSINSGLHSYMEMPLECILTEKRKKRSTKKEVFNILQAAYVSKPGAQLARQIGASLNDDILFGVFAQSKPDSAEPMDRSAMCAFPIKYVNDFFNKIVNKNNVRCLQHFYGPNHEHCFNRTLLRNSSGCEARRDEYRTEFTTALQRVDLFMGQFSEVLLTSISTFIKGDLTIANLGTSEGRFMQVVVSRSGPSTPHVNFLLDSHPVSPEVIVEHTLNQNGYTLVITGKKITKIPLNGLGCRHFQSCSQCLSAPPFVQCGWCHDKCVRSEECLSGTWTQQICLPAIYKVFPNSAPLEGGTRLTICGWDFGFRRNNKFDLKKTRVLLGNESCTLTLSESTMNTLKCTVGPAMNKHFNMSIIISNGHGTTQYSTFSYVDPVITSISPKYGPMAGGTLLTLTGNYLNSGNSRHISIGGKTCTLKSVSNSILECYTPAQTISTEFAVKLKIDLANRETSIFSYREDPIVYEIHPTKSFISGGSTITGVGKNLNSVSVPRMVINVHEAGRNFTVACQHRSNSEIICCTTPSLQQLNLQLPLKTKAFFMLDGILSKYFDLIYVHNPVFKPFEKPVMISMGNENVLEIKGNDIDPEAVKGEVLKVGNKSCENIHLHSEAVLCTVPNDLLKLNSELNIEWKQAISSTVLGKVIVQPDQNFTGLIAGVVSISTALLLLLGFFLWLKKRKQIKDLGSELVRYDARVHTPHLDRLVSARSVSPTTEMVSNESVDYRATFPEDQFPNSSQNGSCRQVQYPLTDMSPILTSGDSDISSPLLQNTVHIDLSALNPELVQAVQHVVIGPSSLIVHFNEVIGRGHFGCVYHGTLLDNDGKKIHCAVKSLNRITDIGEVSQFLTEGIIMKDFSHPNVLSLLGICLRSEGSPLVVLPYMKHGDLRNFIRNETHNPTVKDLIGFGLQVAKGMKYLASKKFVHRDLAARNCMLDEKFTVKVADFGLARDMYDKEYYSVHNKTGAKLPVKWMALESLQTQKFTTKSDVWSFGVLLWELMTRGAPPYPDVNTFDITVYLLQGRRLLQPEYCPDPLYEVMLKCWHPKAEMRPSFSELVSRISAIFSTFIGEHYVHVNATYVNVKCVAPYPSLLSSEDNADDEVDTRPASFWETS
Mitogen-activated protein kinase 3 (Homo sapiens), sequence (P27361 whole entry): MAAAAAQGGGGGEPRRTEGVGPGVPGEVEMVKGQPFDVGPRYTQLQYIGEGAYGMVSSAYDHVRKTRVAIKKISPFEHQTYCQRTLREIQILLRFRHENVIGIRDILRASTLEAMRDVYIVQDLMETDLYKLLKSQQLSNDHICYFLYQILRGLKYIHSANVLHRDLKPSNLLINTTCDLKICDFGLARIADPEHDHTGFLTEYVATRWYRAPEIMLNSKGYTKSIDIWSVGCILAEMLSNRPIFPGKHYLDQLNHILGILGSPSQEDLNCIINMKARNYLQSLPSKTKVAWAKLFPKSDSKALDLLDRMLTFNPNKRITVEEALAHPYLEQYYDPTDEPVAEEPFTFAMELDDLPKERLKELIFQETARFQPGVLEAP

IC50 (K562 [1]) [µM]	IC50 (EBC-1) [µM]	IC50 (HT-29) [µM]	IC50 (A549) [µM]	SMILES	also measured
> 100	> 100	> 100	> 100	CCCCCN1C(=O)C2(NC(=O)c3ccccc3N2)c2ccccc21 (centres undefined)	–
> 100	19.8	24.3	> 100	O=C1NC2(Nc3c(Br)cc(Br)cc31)C(=O)N(Cc1ccc(Cl)c(Cl)c1)c1ccccc12 (centres undefined)	–
> 100	19.6	> 100	45.5	CC(C)(C)c1ccc(CN2C(=O)C3(NC(=O)c4cc(Br)cc(Br)c4N3)c3ccccc32)cc1 (centres undefined)	–
50.4	> 100	28.5	> 100	CCN1C(=O)C2(NC(=O)c3ccccc3N2)c2ccccc21 (centres undefined)	–
–	20.3	29.2	26.2	Cc1ccc(CN2C(=O)C3(NC(=O)c4ccccc4N3)c3ccccc32)cc1 (centres undefined)	–
13.8	10.4	12.5	26.9	O=C1NC2(Nc3c(Br)cc(Br)cc31)C(=O)N(Cc1ccc(Cl)cc1)c1ccccc12 (centres undefined)	Activity (K562 [2]): 17.89%; inhibition [3]: 5%; inhibition [4]: -6%; Activity (K562 [5]): 50.3%; inhibition [6]: -4%; inhibition [7]: 18%; inhibition [8]: -1%; Activity (K562 [9]): 1.41%; inhibition [10]: 2%; inhibition [11]: 12%; inhibition [12]: 5%; Activity (K562 [13]): 57.29%; Activity (K562 [14]): 23.78%; inhibition [15]: 19%; Activity (K562 [16]): 27.23%; Activity (K562 [17]): 21.06%; inhibition [18]: 1%; inhibition [19]: 12%; Activity (K562 [20]): 1.04%; inhibition [21]: -6%
> 100	34.6	> 100	45.4	O=C1NC2(Nc3c(Br)cc(Br)cc31)C(=O)N(Cc1ccc(F)cc1)c1ccccc12 (centres undefined)	–
19.9	38.7	71.9	39.7	O=C1NC2(Nc3ccccc31)C(=O)N(Cc1ccc(Br)cc1)c1ccccc12 (centres undefined)	–
> 100	24.7	51.9	47.1	CCCCCN1C(=O)C2(NC(=O)c3cc(Br)cc(Br)c3N2)c2ccccc21 (centres undefined)	–
1.9	0.0592	3.7	16.2	COc1cc2nccc(Oc3ccc(NC(=O)C4(C(=O)Nc5ccc(F)cc5)CC4)cc3)c2cc1OC [CABOZANTINIB]	–
